Key:
Assay type in all cases: physicochemical
[1] = Lidocaine binding and partitioning into lipid bodies (UV 260 nm after 0.2 μm filtration)
Source text: Lipid bodies were cleared of excipients and antimicrobial preservative by undergoing a 1:10 wash in ethanol followed by rehydration in distilled water.

[2] = Drug loading into lipid-body composition and release into PBS (UV-VIS / HPLC); settings: for drug released, concentration: 6-fold dilution
[3] = Uptake of hydrophobic dyes by lipid bodies (mixing, centrifugation/flotation); settings: for uptake of hydrophobic model compound into lipid bodies: about 50% lipid bodies, mixed about 10 minutes, centrifuged
Method: In this example, fermentations of different engineered hyper lipogenic Lipomyces starkeyi were used to create lipid bodies. Using the engineered hyper-lipogenic strain XYL-403, compositions of lipid bodies were prepared with a diameter from 6.9+/−1.4 microns when measured under a microscope using a calibrated Petroff Hauser counter. Following the initial preparation of lipid bodies, the lipid bodies were fused using high levels of salt at 1M NaCl, solvents such as ethanol at 20% (v/v) in water, and application of shear force using centrifugation (FIG. 12A). Homogenization, filtration, or chemical treatments can be used as alternatives to or in additional centrifugation to induce shear force. Thus, compositions utilizing even larger lipid bodies (e.g., between 12 to 50 μm) can be developed using physically modified and merged lipid bodies. The advantages of larger lipid bodies can be extended using high total volumes of drug carrying capacity.
This example opens the possibility of even higher volumetric carrying capacity of lipid-body compositions of the invention when expanded to the upper limit of known diameter.
In this example, lipid bodies at about 50% concentration in base composition of example 1A were subjected to the addition of concentrated Nile red, which had been solubilized in DMSO and used in this example as a surrogate for a hydrophobic compound or hydrophobic drug. The lipid-body composition was mixed with Nile red for 10 minutes and centrifuged. After centrifugation, the lipid bodies separate by flotation and all of the Nile red entered into the lipid bodies. The lipid bodies remain hydrophilic on the exterior of the lipid body spheres and continue to feel aqueous.
In another version of this example, lipid bodies at approximately 50% by dry weight were mixed with a second hydrophobic model drug compound, Sudan black. […] Similar to the Nile red results, Sudan black is shown to be taken up by lipid bodies (FIG. 13B).

[4] = 100 μL of 5 mg/mL stock per 1 g lipid bodies, 300 mg in 1 mL PBS, 15 min, room temperature, UV 343 nm
[5] = Example 19: dry powder loading plus 33 μL PBS, UV 350 nm

For CCN(CC)CC(=O)Nc1c(C)cccc1C [Lidocaine], the “Lidocaine in Aqueous Cream Fraction” value ([1]; 500 μg Lidocaine in Salt (1M NaCl)) was 72%, the “Lidocaine in Aqueous Cream Fraction” value ([1]; 500 μg Lidocaine in Water) was 83% and the “Lidocaine in Aqueous Cream Fraction” value ([1]; Control: 500 μg Lidocaine without Lipid Bodies and Filtered) was 100%.
In the case of CCCCc1nc(Cl)c(CO)n1Cc1ccc(-c2ccccc2-c2nn[nH]n2)cc1 [Losartan], the “Losartan released into 1 mL PBS, concentration” value ([2]; 100 μL of 5 mg/mL stock per 1 g lipid bodies, 300 mg in 1 mL PBS, HPLC 210 nm, 3.9 minutes) is reported as 54.4 µg/mL and the total release ([2]; Losartan, 300 mg in 1 mL PBS, HPLC 210 nm) is reported as 36.3%.
With CCN(CC)c1ccc2nc3c4ccccc4c(=O)cc-3oc2c1 [Nile red] the “uptake of hydrophobic model compound into lipid bodies” value [3] was “quantitatively complete”.
For CC1(C)Nc2cccc3c(N=Nc4ccc(N=Nc5ccccc5)c5ccccc45)ccc(c23)N1 [Sudan black], the “uptake of hydrophobic model compound into lipid bodies” value [3] was “essentially all of the Sudan black loaded into the lipid bodies” and the “taken up into the lipid bodies” value ([3]; merged very large lipid bodies (1M NaCl, 20% ethanol, centrifugation)) was roughly 100%.
CC(C)OC(=O)CCC/C=C\C[C@@H]1[C@@H](/C=C/[C@@H](O)COc2cccc(C(F)(F)F)c2)[C@H](O)C[C@@H]1O [Travoprost] showed a Travoprost released ([2]; first procedure: 2 μL of 25 mg/mL per 1 g lipid bodies, 300 mg in 1 mL PBS, HPLC 210 nm) of 50% and a Travoprost release ([2]; second procedure: 250 μg evaporated concentrate per 1 g lipid bodies, 100 mg in 1 mL PBS, HPLC) of 60.7%.
For CCN(CC)CCCC(C)Nc1ccnc2cc(Cl)ccc12 (stereo not drawn) [chloroquine], the total release [2, 4] was 8.1%, the “drug released, concentration” value [2, 4] was 12.1 µg/mL and the total release ([2]; Example 21, repeat dilution (1 to 3 then 1 to 2)) was 8.1%.
COc1cc2c(c(OC)c1OC)-c1ccc(OC)c(=O)cc1[C@@H](NC(C)=O)CC2 [colchicine] showed a colchicine released ([2]; Example 15: 55% aqueous/45% drug-containing lipid-body composition, 100 μL of 2 mg/mL stock per 1 g lipid body, 300 mg in 1 mL PBS, 15 min, room temperature, UV 350 nm) of 5.9 µg/mL, a drug release ([2]; Example 15: 55% aqueous/45% drug-containing lipid-body composition, 300 mg in 1 mL PBS, 15 min, room temperature, UV 350 nm) of 9.8% and a colchicine released ([2]; Example 16: 62% liquid/38% composition, HPLC) of 41%. For the same compound, the drug released ([2]; Example 16: 62% liquid/38% composition, HPLC (350 nm, 2.9 minutes)) was 61.5 µg/mL, the “released, % of the total colchicine” value ([2]; Example 16: 62% liquid/38% composition, UV 350 nm) was 34.5% and the drug released ([2]; Example 16: 62% liquid/38% drug-containing lipid-body composition, 5 mg/mL stock, 200 μL PBS added, 1 mL PBS, room temperature, UV 350 nm) was 51.8 µg/mL. The “released, % of the total compound loaded” value ([2]; Example 17: 67% liquid/33% composition, UV 350 nm) was 15.1%, the colchicine released ([2]; Example 17: 67% liquid/33% drug-containing lipid-body composition, 178 μL PBS added, UV 350 nm) was 22.6 µg/mL and the colchicine released ([2]; Example 18: 30 mg dry powder mixed into 1 g lipid bodies, 300 mg in 2 mL PBS, 15 min, room temperature, UV 350 nm) was 3,390 μg/mL. The “released, % of the total colchicine present” value ([2]; Example 18: dry powder loading, 50% lipid-body composition, UV 350 nm) was 37.6%, the colchicine released [2, 5] was 4000 µg/mL and the “released, % of the total colchicine” value [2, 5] was 44%.
With CCN(CCO)CCCC(C)Nc1ccnc2cc(Cl)ccc12 (stereo not drawn) [hydroxychloroquine] the total release [2, 4] was 10.4% and the “drug released, concentration” value [2, 4] was 5.66 µg/mL.
